Key:
5-HT-1C receptor = target: T1, 5-HT-1C receptor (Homo sapiens, UniProt P28335); assay: Activity at the 5-HT-1C receptor; assay type: binding
T1 sequence (P28335 33-458): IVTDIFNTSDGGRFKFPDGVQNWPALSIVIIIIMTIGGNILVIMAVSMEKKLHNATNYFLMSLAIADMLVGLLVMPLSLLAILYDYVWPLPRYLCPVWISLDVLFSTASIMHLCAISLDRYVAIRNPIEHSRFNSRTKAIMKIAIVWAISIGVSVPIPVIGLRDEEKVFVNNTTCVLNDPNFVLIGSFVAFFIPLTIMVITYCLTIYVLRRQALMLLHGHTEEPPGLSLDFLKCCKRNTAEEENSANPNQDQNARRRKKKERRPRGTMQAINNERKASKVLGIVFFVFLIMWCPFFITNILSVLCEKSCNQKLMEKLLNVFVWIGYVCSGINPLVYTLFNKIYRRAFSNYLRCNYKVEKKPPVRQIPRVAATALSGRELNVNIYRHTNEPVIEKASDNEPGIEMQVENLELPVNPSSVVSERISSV

patients [1] = settings: compared with flumezapine
[2] = Studies using radiolabelled compound, saliva residues; assay type: in vivo
Procedure: For example, in the treatment of adult humans, dosages of from 0.25 to 30 mg, preferably from 1 to 20 mg, per day may be used. A once a day dosage is normally sufficient, although divided doses may be administered. For treatment of psychotic disorders a dose range of from 1 to 20 mg, preferably 2.5 to 15 mg per day is suitable, whereas for mild anxiety states a lower dosage range, such as from 0.25 to 5 mg, preferably 1 to 5 mg, may be more appropriate. In choosing a suitable regimen for patients suffering from psychotic illness it may frequently be necessary to begin with a dosage of from 1 to 20 mg per day and when the illness is under control to reduce to a dosage as low as 1 mg per day.

mice [3] = assay: Apomorphine-induced hypothermia; assay type: in vivo
rats [4] = assay: Multiple conflict schedule (Geller and Seifter); assay type: in vivo; settings: dosed orally 60 minutes before testing
Source text: Moore, Nicholas A. et al., The Journal of Pharmacology and Experimental Therapeutics. 545-551, 262:2 (1992). The test measures characteristic changes in rates of responding associated with anxiolytic agents. The conflict procedure results are indicative of favorable anxiolytic activity.
The conflict procedure used was based on the method of Geller and Seifter, Psychopharmacologia 1: 482-492, (1960). Rats were trained on a multiple schedule consisting of three components. Individual components were as follows: 1) for 9 minutes, lever pressing was reinforced on a variable interval 30 second schedule (VI 30, reward). This period was signaled by illumination of the houselight alone. 2) During the following 3-minute period, lever presses were recorded but had no programmed consequence (time-out). 3) Lever pressing was reinforced according to a fixed ratio 10 second food presentation (FR10) for 3 minutes; however, each reinforced response was accompanied by an electric current (0.5 mA) being applied to the grid floor for 500 msec (conflict). This component was signaled by illumination of the houselight and three cue lights on the front panel. This sequence of three components (reward/time-out/conflict) was presented twice in the same order during the daily 30 minute session.
After the training procedure, drug testing was initiated. […]

D-1 and D-2 receptors = assay: Prevention of EEDQ disruption of the apomorphine-induced climbing response; assay type: in vivo; settings: 24 hour pretreatment with EEDQ
mice [5] = assay: Apomorphine-induced climbing behaviour; assay type: in vivo
dogs = assay: Dog toxicity studies, cholesterol levels; assay type: in vivo; settings: dosage of 8 mg/kg stated for the 2-ethyl compound
rats [6] = assay: Conditioned avoidance response; assay type: in vivo; settings: Rattus norvegicus, read-out: ED50, inhibition of conditioned avoidance response
[7] = tested on: noradrenergic α-receptors; assay: Pharmacological tests, noradrenergic α-receptors
Source text: These properties indicate that the compound is a potential neuroleptic with relaxant, anxiolytic and anti-emetic properties, and may be useful in treating psychotic conditions such as, but not limited to, schizophrenia, schizophreniform diseases and mania. At lower doses the compound is indicated for use in the treatment of mild anxiety states.

patients [8] = settings: cited from earlier work
[9] = tested on: psychiatric patients suffering from schizophrenia; assay: Clinical trial of flumezapine in psychiatric patients suffering from schizophrenia; assay type: in vivo, human
Source text: The lead compound from this group, flumezapine, (7-fluoro-2-methyl-10-(4-methyl-1-piperazinyl)-4H-thieno[2,3-b][1,5]-benzodiazepine), was developed to the stage of being clinically administered to psychiatric patients suffering from schizophrenia. A total of 17 patients received treatment with flumezapine before the clinical trial was terminated after consultation with the U.S. Food and Drug Administration, because of an unacceptably high incidence of raised enzyme levels in the treated patients. […] In respect of its tendency to raise liver enzyme levels, flumezapine is similar to chlorpromazine, an antipsychotic which has long been in use but whose safety has been called into question.

## Cc1cc2c(s1)Nc1ccccc1N=C2N1CCN(C)CC1
5-HT-1C receptor
  activity at the 5-HT-1C receptor: active
Patients [1]
  plasma levels of creatinine phosphokinase (CPK): lower than with flumezapine
[2]
  residues in saliva: residues have been detected in the saliva
Mice [3]
  dose antagonizing apomorphine-induced hypothermia: less than 10 mg/kg
Rats [4]
  active dose in multiple conflict schedule: less than 5 mg/kg
D-1 and D-2 receptors
  active dose, prevention of disruption of climbing response by EEDQ: less than 10 mg/kg
Mice [5]
  dose antagonizing apomorphine-induced climbing behaviour: less than 10 mg/kg
dogs
  rise in cholesterol levels: did not show any rise in cholesterol levels
Rats [6]
  ED50: 4 to 7 mg/kg
[7]
  activity at noradrenergic α-receptors: antagonist activity

## CCc1cc2c(s1)Nc1ccccc1N=C2N1CCN(C)CC1 [2-ethyl-4-(4-methyl-1-piperazinyl)-10H-thieno[2,3-b][1,5]benzodiazepine, reference compound]
dogs
  rise in cholesterol levels: four out of eight dogs showed a significant rise in cholesterol levels

## CN1CCN(C2=Nc3cc(Cl)ccc3Nc3ccccc32)CC1 [clozapine]
Patients [8]
  reported clinical side effects: cause agranulocytosis in some patients

## Cc1cc2c(s1)Nc1ccc(F)cc1N=C2N1CCN(C)CC1 [flumezapine, 7-fluoro-2-methyl-10-(4-methyl-1-piperazinyl)-4H-thieno[2,3-b][1,5]-benzodiazepine]
[9]; 17 patients treated, trial terminated
  enzyme levels CPK, SGOT and SGPT in blood samples: in substantial excess of normal values
[9]; clinical trials
  emergence of extrapyramidal side effects as measured on the AIMS scale: two of the patients showed the emergence of extrapyramidal side effects

## O=C(CCCN1CCC(O)(c2ccc(Cl)cc2)CC1)c1ccc(F)cc1 [haloperidol]
Patients [8]
  reported clinical side effects: high incidence of extrapyramidal symptoms
